In article PMC3241888 (Nature chemical biology, 2011):

Target: T1, Pol δ (Saccharomyces cerevisiae, UniProt P15436)
T1 sequence (P15436 1-1097): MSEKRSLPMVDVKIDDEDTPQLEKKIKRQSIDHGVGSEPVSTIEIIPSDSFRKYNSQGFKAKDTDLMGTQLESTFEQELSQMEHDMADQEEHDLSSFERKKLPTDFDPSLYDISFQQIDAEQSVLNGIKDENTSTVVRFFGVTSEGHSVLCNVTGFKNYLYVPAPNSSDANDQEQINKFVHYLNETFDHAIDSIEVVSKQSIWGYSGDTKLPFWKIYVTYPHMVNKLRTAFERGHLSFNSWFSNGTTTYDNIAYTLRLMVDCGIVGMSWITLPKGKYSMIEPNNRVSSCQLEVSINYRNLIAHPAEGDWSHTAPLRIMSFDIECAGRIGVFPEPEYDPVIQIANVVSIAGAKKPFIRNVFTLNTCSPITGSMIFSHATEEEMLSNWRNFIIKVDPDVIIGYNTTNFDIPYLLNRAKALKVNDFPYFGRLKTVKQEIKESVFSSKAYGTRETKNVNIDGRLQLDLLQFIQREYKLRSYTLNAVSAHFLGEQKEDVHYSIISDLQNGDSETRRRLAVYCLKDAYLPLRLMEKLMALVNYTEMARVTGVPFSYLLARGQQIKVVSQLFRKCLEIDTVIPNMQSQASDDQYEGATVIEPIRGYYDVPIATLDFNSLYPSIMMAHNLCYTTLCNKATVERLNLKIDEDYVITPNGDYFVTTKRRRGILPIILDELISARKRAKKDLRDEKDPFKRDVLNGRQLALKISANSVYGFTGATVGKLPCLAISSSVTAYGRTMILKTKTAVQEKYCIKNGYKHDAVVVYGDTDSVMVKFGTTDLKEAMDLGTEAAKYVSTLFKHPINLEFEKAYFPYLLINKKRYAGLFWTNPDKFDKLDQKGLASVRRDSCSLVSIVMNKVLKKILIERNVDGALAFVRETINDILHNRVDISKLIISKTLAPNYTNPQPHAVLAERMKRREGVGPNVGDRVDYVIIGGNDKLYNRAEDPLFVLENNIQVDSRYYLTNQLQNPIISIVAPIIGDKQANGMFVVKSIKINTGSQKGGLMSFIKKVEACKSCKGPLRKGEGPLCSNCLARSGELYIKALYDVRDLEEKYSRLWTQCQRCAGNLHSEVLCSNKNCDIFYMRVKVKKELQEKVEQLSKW
T1 sequence (P46957 1-487 partner): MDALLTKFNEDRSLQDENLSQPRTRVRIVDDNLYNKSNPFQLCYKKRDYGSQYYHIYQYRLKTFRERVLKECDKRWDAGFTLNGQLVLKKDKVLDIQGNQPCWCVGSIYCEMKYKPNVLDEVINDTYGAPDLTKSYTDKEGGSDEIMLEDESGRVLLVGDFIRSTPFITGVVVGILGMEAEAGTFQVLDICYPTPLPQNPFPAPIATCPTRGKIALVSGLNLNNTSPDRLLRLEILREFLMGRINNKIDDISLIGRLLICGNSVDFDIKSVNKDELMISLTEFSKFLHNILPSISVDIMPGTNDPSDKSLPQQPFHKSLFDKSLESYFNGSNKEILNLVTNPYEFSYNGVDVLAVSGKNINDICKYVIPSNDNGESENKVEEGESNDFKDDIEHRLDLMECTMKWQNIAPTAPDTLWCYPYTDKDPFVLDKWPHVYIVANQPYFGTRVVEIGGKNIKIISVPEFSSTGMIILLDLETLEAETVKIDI
T1 sequence (P47110 1-350 partner): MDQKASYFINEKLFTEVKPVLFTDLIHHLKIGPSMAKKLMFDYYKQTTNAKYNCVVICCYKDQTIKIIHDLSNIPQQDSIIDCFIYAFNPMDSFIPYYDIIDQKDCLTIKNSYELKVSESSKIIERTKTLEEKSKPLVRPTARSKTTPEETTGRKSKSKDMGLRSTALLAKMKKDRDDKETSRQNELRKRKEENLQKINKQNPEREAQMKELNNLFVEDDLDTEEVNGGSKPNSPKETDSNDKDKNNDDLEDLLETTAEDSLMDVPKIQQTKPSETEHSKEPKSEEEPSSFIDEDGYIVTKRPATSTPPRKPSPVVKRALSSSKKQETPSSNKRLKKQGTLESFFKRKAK
Assay: UV-Vis
Type: binding
Conditions: CysB site of Pol3; as isolated from yeast

For [S]12[Fe]3[S]4[Fe]1[S]1[Fe]2[S]3[Fe]41 [[4Fe-4S] cluster], the “mol non-heme iron and acid-labile sulfide ions per mol Pol δ” value was ~ 4 mol/mol.
